Calls of active or inactive are those of the source.
Assays:
[1] = target: DNA dC->dU-editing enzyme APOBEC-3A (Homo sapiens, UniProt P31941); experiment: Dose Response confirmation of small molecule APOBEC3A DNA Deaminase Inhibitors via a fluorescence-based single-stranded DNA deaminase assay. [Related pubchem assays (depositor defined):AID493011, AID493024]; type: functional
[2] = target: DNA dC->dU-editing enzyme APOBEC-3G (Homo sapiens, UniProt Q9HC16); type: functional;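 further: Dose-response counterscreen measuring inhibition of APOBEC3G DNA deaminase activity, run while confirming APOBEC3A inhibitors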
Chain of DNA dC->dU-editing enzyme APOBEC-3G (Q9HC16 whole entry): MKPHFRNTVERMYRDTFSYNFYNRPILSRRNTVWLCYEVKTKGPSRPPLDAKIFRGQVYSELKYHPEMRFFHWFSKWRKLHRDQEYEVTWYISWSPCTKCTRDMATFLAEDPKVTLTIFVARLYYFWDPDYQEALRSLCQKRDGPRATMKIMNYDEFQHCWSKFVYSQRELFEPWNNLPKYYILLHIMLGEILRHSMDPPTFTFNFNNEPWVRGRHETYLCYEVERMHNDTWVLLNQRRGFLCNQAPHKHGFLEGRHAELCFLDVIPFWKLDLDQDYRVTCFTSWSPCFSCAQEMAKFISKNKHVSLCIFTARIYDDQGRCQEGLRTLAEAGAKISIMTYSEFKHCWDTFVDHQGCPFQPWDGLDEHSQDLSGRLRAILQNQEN

HEK293 = experiment: EBV LMP1 TES2 canonical NF-kB signalling blockers – cell-based, HEK293, luciferase, cherry-pick, dose response (AID 588343); type: functional; settings: Homo sapiens
[3] = Luminescence-based counterscreen assay for KLF5 inhibitors: dose response cell-based high throughput screening assay to identify cytotoxic compounds using the IEC-6 intestinal epithelial cell line. [Related pubchem assays: 1700 (Primary screen.), 1834 (Confirmation screen.), 1858 (Summary AID.), 1905 (Counterscreen.)]; type: functional
[4] = target: Peroxisome proliferator-activated receptor gamma/Nuclear receptor corepressor 2 (Homo sapiens, UniProt P37231+Q9Y618); experiment: Counterscreen for NR2E3 inverse agonists: TR-FRET-based biochemical high throughput dose response assay to identify inverse agonists of the interaction between peroxisome proliferator-activated receptor gamma (PPARg) and nuclear receptor co-repressor 2 (NCOR2).; type: functional
[5] = target: Photoreceptor-specific nuclear receptor (Homo sapiens, UniProt Q9Y5X4); experiment: ligands suppressing NR2E3 nuclear receptor activity – biochemical, TR-FRET, dose response (AID 463256); type: functional
Chain of Photoreceptor-specific nuclear receptor (Q9Y5X4 whole entry): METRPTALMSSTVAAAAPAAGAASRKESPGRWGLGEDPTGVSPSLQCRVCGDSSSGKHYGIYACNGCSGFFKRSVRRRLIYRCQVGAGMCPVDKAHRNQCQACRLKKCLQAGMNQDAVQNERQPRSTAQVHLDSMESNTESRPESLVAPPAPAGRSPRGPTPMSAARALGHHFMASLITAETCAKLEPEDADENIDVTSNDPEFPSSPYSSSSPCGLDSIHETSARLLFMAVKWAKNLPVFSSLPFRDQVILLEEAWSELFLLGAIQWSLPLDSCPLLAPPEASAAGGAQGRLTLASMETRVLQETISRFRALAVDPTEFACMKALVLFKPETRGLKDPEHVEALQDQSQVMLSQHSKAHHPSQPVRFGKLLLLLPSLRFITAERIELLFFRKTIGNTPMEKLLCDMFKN

[6] = target: Voltage-dependent T-type calcium channel subunit alpha-1H (Homo sapiens, UniProt O95180); type: functional;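 further: channel activity triggered by adding a high calcium stimulation buffer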
Chain of Voltage-dependent T-type calcium channel subunit alpha-1H (O95180 whole entry): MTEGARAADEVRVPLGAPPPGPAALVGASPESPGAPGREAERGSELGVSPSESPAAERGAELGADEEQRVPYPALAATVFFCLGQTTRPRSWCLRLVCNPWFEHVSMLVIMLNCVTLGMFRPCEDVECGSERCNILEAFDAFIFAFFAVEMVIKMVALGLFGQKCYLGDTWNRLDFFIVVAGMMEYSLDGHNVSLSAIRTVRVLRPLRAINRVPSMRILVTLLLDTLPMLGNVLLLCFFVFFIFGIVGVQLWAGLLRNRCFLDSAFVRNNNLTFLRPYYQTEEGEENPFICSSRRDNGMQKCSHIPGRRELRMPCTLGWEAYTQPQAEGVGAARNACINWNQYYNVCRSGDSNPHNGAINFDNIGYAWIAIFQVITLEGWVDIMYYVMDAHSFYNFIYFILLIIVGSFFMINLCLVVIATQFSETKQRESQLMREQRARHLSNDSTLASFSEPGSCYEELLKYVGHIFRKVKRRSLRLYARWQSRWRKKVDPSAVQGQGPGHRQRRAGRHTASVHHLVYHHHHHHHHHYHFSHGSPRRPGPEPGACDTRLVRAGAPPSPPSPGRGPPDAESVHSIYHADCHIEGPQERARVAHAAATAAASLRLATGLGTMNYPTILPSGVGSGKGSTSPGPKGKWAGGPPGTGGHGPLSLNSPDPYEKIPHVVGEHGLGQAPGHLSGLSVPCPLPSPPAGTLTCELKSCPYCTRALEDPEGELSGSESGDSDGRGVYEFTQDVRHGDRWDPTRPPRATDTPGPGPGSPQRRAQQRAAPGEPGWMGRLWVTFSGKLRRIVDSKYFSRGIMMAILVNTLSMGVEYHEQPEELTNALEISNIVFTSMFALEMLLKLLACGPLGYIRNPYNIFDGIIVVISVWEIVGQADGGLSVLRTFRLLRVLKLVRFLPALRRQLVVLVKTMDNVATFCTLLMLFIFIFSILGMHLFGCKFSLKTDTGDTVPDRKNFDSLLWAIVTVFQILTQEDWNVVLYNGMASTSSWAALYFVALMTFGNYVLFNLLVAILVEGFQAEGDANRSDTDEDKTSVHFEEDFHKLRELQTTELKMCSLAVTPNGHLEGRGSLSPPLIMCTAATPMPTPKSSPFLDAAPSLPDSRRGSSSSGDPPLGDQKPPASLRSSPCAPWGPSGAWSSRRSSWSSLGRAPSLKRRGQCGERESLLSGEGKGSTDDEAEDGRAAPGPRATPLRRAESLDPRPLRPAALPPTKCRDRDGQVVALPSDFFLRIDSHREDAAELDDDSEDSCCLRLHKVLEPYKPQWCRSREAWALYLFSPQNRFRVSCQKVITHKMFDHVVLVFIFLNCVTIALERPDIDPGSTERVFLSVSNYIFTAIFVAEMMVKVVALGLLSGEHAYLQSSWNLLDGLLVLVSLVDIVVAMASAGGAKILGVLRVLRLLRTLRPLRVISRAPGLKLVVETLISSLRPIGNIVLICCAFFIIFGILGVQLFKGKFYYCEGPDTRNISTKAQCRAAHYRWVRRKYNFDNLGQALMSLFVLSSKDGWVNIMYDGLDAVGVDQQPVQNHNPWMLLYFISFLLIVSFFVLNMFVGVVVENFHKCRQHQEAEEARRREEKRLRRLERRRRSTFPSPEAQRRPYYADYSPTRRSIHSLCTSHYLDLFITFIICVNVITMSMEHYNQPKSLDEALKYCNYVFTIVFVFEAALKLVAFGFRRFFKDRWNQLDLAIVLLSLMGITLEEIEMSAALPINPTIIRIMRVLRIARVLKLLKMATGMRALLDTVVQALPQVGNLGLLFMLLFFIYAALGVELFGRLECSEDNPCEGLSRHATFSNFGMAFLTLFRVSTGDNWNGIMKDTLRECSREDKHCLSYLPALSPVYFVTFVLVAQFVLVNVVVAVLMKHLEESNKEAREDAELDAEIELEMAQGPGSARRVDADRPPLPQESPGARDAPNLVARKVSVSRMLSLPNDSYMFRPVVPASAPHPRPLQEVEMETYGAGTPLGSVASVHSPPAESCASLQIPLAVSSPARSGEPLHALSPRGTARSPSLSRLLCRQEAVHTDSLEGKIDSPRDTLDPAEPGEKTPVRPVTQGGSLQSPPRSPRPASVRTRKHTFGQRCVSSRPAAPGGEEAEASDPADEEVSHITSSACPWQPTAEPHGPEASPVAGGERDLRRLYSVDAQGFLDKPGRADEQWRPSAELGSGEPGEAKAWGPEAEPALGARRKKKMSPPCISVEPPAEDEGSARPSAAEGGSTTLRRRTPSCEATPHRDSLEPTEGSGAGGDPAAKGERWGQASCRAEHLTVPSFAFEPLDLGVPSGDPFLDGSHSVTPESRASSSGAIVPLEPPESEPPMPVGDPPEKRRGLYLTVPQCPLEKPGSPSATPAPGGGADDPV

Coagulation factor XII = target: T1, Coagulation factor XII (Homo sapiens, UniProt P00748); experiment: activated coagulation factor XII inhibitor potency, concentration-effect curve, cell-free (AID 716); type: functional
T1 sequence (P00748 whole entry): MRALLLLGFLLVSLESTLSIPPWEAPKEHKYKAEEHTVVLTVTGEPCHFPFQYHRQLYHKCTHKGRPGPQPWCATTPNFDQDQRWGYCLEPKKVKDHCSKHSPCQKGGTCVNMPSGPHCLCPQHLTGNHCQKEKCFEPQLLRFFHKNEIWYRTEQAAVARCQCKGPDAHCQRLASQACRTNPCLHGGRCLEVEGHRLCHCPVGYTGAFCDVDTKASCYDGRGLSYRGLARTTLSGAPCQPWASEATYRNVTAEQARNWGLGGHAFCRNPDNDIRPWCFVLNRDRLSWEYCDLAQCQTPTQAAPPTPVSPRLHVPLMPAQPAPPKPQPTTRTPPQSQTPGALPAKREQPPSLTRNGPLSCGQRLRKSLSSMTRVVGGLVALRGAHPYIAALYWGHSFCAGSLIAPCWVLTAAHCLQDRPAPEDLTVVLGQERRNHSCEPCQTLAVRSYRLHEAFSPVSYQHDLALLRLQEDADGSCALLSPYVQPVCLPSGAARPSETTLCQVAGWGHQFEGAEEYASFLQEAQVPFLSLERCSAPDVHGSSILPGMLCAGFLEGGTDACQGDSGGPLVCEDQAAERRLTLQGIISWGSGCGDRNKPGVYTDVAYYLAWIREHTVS

[7] = target: T2, Lytic switch protein BZLF1 (Epstein-Barr virus (strain B95-8) (HHV-4) (Human herpesvirus 4), UniProt P03206); experiment: inhibition of BZLF1 ZTA DNA binding – biochemical, fluorescence polarization, Epstein-Barr virus, 1536-well, counter-screen for EBNA-1 inhibitor project, dose response (AID 2377); parameters: species or system human gammaherpesvirus 4;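 further: fluorescence polarization of Cy5-labelled ZRE DNA probe bound by purified Zta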
T2 sequence (P03206 whole entry): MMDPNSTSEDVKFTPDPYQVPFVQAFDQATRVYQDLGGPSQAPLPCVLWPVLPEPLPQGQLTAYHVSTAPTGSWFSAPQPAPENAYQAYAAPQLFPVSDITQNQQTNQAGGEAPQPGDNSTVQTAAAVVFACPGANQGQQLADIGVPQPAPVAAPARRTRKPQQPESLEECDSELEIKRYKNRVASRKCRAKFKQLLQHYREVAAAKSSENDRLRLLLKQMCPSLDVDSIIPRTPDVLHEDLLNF

[8] = target: T3, Epstein-Barr nuclear antigen 1 (Epstein-Barr virus (strain B95-8) (HHV-4) (Human herpesvirus 4), UniProt P03211); experiment: inhibition of EBV nuclear antigen 1 DNA binding – biochemical, fluorescence polarization, 1536-well, dose response (AID 2381); parameters: species or system human gammaherpesvirus 4;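 further: fluorescence polarization of a Cy5 DNA probe bound by EBNA-1 protein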
T3 sequence (P03211 whole entry): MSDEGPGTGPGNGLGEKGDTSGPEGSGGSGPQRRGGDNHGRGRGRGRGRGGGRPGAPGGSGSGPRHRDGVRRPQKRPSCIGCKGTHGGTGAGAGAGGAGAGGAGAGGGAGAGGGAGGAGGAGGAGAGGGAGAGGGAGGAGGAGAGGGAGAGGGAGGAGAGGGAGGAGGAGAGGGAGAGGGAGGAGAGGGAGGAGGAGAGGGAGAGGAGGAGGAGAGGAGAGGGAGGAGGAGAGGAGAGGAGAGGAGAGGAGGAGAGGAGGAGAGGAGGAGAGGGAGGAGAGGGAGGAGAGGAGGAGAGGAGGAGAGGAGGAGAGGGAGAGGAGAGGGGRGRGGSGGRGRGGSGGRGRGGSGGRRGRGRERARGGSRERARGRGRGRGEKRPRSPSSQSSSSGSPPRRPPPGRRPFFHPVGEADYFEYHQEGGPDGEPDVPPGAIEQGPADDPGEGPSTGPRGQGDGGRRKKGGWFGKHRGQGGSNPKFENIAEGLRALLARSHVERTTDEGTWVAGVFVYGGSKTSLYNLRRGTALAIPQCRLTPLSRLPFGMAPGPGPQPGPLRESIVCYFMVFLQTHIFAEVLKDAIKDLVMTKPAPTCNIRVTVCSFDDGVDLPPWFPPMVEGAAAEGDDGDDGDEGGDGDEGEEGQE

[9] = blockers of bursicon-stimulated LGR2 cAMP reporter – cell-based, HEK293, CRE-luciferase reporter, cherry pick, set 2, dose response (AID 743343); type: functional;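 further: transfected cells were stimulated with diluted bursicon conditioned medium after compound addition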
[10] = blockade of melanocortin 4 receptor signaling – cell-based, plate reader, cherry pick, counter-screen for LGR2 antagonist project, dose response (AID 743444); type: functional;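 further: transfected HEK 293 cells stimulated with alpha-MSH peptide; potency of inhibitors of the alpha-MSH evoked signal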
[11] = viability loss in HEK293 cells – cell-based, plate reader, cherry-picked samples, cytotoxicity control, dose response (AID 743446); type: functional
[12] = reduced cellular PGC1a acetyl-lysine signal – cell-based, cherry-picked samples, dose response (AID 720514); type: functional;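 further: potency may reflect raised or lowered acetylation signal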
[13] = A549 cell cytotoxicity, dose response, cytotoxicity control, plate reader, cherry-pick, antagonist series (AID 743412); type: functional, cell-based
Paired box protein Pax-8 = Paired box protein Pax-8 (Homo sapiens, UniProt Q06710); experiment: PAX8 transcriptional activity inhibition in RMG-I – RMG-I cells, luciferase, cherry-pick, dose response (AID 687027); type: functional, cell-based;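 further: luciferase reporter driven by Pax8 target thyroperoxidase promoter measured by SteadyGlo luminescence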
Chain of Paired box protein Pax-8 (Q06710 whole entry): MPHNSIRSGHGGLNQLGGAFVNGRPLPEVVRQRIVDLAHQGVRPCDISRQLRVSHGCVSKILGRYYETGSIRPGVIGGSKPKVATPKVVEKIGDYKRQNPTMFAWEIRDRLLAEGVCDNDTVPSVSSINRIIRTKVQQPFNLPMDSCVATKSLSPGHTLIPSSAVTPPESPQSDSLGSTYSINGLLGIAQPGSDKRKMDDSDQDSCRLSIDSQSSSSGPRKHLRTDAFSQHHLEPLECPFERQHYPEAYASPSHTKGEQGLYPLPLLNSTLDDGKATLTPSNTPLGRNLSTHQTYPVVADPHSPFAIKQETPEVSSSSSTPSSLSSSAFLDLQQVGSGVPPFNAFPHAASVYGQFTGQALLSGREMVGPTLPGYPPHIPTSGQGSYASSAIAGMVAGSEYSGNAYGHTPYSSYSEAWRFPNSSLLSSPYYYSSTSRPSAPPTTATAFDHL

[14] = toxicity toward HepG2 liver cells – cell-based, plate reader, cherry-pick, antagonist series, cytotoxicity control, dose response (AID 743416); type: functional
Prothrombin = Prothrombin (Homo sapiens, UniProt P00734); experiment: Thrombin 1536 HTS Dose Response Confirmation. [Related pubchem assays: 1046 (Thrombin 1536 HTS; hits were confirmed in this assay)]; type: functional
[15] = target: T4, Carboxy-terminal domain RNA polymerase II polypeptide A small phosphatase 1 (Homo sapiens, UniProt Q9GZU7); experiment: CTDSP1 inhibitors, concentration-response, biochemical, absorbance readout, ultra-high-throughput screen actives (AID 540297); type: functional
T4 sequence (Q9GZU7 whole entry): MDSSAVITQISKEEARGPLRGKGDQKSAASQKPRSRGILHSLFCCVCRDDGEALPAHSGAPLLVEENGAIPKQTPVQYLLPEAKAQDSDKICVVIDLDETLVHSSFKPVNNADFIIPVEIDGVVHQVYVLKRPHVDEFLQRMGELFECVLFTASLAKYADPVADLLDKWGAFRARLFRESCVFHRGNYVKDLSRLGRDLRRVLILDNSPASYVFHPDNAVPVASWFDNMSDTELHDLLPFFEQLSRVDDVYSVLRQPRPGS

[16] = toxicity to human hepatoma HepG2 cells – cell-based, cherry-picked samples, cytotoxicity control, dose response (AID 1159577); type: functional
[17] = P. falciparum Dd2 growth inhibitors, dose response, SYBR Green, cherry-picked samples (AID 1159567); type: functional, cell-based
[18] = target: Heat shock protein HSP 90-alpha (Homo sapiens, UniProt P07900); type: functional, organism-based
[19] = Fluorescence-based cell-based high throughput dose response assay for inhibitors of the interaction of nucleotide-binding oligomerization domain containing 2 (NOD2) and the receptor-interacting serine-threonine kinase 2 (RIPK2).; type: functional; settings: Homo sapiens
INS1 = experiment: INS-1E survival protection against cytokine death – cell-based, luminescence, retest, dose response (AID 449756); type: functional; settings: Rattus norvegicus;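 further: cell death triggered by IL-1 beta plus TNF-alpha plus IFN-gamma mixture; protective hits raise ATP signal compared with cytokine alone wells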
[20] = target: FAD-linked sulfhydryl oxidase ALR (Homo sapiens, UniProt P55789); experiment: ALR-catalysed DTT oxidation blockers – biochemical, H2O2 detection, luminescence, cherry-pick, dose response (AID 493248)
Chain of FAD-linked sulfhydryl oxidase ALR (P55789 whole entry, the tested form may be a part): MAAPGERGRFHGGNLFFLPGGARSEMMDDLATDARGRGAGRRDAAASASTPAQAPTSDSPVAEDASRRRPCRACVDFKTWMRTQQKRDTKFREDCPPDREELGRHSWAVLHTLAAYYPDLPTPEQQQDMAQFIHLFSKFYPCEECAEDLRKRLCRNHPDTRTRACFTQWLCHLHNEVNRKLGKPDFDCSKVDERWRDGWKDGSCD

[21] = target: T5, Oxysterols receptor LXR-beta (Homo sapiens, UniProt P55055); type: functional, cell-based;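 further: Cell-based luminescence dose-response assay of agonist activity at LXR, run as a confirmatory counterscreen to a daf-12 agonist screen; HEK293 cells with Gal4-LXR fusion and GAL4-driven luciferase reporter; agonist potency from rising luciferase signal of a Gal4-LXR reporter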
T5 sequence (P55055 whole entry): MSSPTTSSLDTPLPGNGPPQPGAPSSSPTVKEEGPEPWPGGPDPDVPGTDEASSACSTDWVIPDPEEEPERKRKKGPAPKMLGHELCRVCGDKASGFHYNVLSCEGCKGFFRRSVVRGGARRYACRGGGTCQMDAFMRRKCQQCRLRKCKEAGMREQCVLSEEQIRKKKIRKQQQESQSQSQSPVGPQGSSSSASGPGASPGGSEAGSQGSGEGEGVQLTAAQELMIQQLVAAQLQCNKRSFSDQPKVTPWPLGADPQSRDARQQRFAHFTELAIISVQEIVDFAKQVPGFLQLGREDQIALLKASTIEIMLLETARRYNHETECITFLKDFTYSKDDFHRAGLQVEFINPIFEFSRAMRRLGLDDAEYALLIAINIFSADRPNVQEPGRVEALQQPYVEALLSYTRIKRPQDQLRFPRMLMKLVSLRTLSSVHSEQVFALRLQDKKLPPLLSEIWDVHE

Chain of DNA dC->dU-editing enzyme APOBEC-3A (P31941 whole entry): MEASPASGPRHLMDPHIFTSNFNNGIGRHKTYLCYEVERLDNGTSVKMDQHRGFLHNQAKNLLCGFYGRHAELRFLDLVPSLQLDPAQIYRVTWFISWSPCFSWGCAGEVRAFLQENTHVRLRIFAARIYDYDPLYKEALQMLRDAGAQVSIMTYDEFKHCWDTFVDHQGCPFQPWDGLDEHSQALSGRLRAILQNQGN

Cc1cc(=O)oc2c1c(C)nn2-c1nn[nH]n1
IC50 [1]: 1.76 µM (active) | IC50 [2]: 4.36 µM (active)

CCOc1cc(Br)cc(/C=N/NC(=O)c2cccnc2)c1O
AC50 (HEK293): 21.5 µM (active) | IC50 [3]: 16.8 µM (not active)

Cc1ccsc1C(=O)Nc1nccs1
IC50 [4]: 27.3 µM (not active) | IC50 [5]: > 39.9 µM (not active)

CCc1ccc(-c2nc(CN3CCC(C(=O)NCc4ccc(F)cc4)CC3)c(C)o2)cc1
EC50 [6]: 4.46 µM (active)

C=CCNc1ncnc2c1[nH]c1ccc(C)cc12
IC50 (Coagulation factor XII): > 50 µM (inactive)

CC1=CC(=C(C#N)C#N)C=C(C)N1CCN1CCN(C(=O)Nc2ccc(Cl)c(Cl)c2)CC1
IC50 [7]: > 111 µM (not active) | IC50 [8]: 16.3 µM (not active)

O=C(Nc1ccc(-c2nc3ncccc3o2)cc1)c1ccc(Br)o1
IC50 [4]: 3.7 µM (active) | IC50 [5]: 3.5 µM (active)

COc1ccccc1/N=C/c1nc(-c2ccccc2)oc1OC(C)=O
IC50 (Coagulation factor XII): 48.8 µM (active)

Cn1nnnc1Sc1ncnc2scc(-c3cccc(S(C)(=O)=O)c3)c12
AC50 [9]: 4.13 µM (active) | AC50 [10]: 2.82 µM (active) | AC50 [11]: 25.8 µM (active) | AC50 [12]: 35.3 µM (active) | AC50 [13]: 14.9 µM (active) | AC50 (Paired box protein Pax-8): 2.03 µM (active) | AC50 [14]: 17.6 µM (active)

Cn1cc(C(=O)c2ccc(Cl)cc2Cl)cc1C(=O)NN=C(N)COc1ccc(F)cc1
IC50 (Prothrombin): 2.13 µM (active) | EC50 [6]: 2.48 µM (active)

O=[N+]([O-])c1cccc(/C=N/Nc2nc(NCc3ccccc3)nc(N3CCOCC3)n2)c1
IC50 [7]: > 111 µM (not active) | IC50 [8]: 3.45 µM (active)

O=C(O)c1cc(-c2ccc3c(c2)OCO3)nc2ccccc12
AC50 [12]: 31 µM (active)

CCCc1nc(-c2cc3cc(C)ccc3[nH]c2=O)no1
IC50 [15]: 12.8 µM (active) | IC50 [1]: 3.04 µM (active) | IC50 [2]: 2.41 µM (active)

CCC1=C/C(=C\c2ccc3c(c2)OCO3)C(=O)S1
IC50 (Coagulation factor XII): > 50 µM (inactive)

COc1ccccc1NC(=O)N1CCCCN2[C@@H](CO)[C@H](c3ccc(C#Cc4ccccc4)cc3)[C@@H]2C1
AC50 [16]: 9.96 µM (active) | AC50 [17]: < 0.3 µM (active)

CC12CCC(C[N+](C)(C)C1)C2(C)C (centres undefined)
IC50 [15]: 5.62 µM (active) | IC50 [1]: 2.69 µM (active) | IC50 [2]: 4.71 µM (active)

Cc1ccccc1Oc1cc(-n2ncc(Cl)c(Cl)c2=O)ncn1
AC50 [9]: 7.89 µM (active) | AC50 [10]: 9.42 µM (active) | AC50 [11]: 4.45 µM (active) | AC50 [18]: 3.94 µM (active) | AC50 [12]: 4.25 µM (active) | IC50 [19]: 0.882 µM (active) | AC50 (INS1): 3.02 µM (active) | AC50 [13]: 4.53 µM (active) | AC50 [14]: 1.65 µM (active)

O=C(CSc1nnnn1C1CCCCC1)N1c2ccccc2Sc2ccccc21
EC50 [6]: 7.42 µM (active)

Cc1sc2ncnc(SCC(=O)NNC(=O)COc3cccc4ccccc34)c2c1C
IC50 [7]: > 111 µM (not active) | IC50 [8]: 2.02 µM (active)

COc1ccc(-c2cn3c4c(sc3n2)CCCC4)cc1
EC50 (cells): > 67.5 µM (inactive) | AC50 [20]: 0.325 µM (active) | EC50 [21]: > 67.5 µM (inactive)

From ChEMBL document CHEMBL1201862, “PubChem BioAssay data set” (2004)
